Values joined by “and” are separate entries in the source; they are usually repeats but may differ in a detail not shown here. Equal entries are not always repeated. Numbered stars: 1 amine (or outer) side, 2 acyl side, 3 side chain; on linkers, the order of the positions; unused ones are H or OH. Bridge positions count the residues as written; N and C are the ends. Square brackets hold non-standard residues; d marks the D form. Peptide text beside a SMILES is read from it. I, II: the chains in the order shown. Actinocin(9to1) = Cc1c2oc3c(C)ccc(C(=O)[*:1])c3nc-2c(C(=O)[*:2])c(N)c1=O; NMeV = CN[C@H](C(=O)O)C(C)C; Sar = CNCC(=O)O
What was measured:
TRRE = test: Effect of protease inhibitors and divalent metal ions on partially-purified TRRE activity; assay type: biochemical, human; conditions: for effect on TRRE activity: partially-purified TRRE
Description: C75R cells and COS-1 cells were seeded into 24-well culture plates at a density of 2.5×10^5 cells/ml/well and incubated overnight (for 12 to 16 hours) in 5% CO2 at 37° C. […] (corresponding to A and C mentioned below, respectively). Simultaneously, C75R cells in 24-well plates were also incubated with 300 μl of fresh medium or buffer (corresponding to B mentioned below).
The precipitate was pelleted by centrifugation at 10,000×g for 30 min and resuspended in PBS in approximately twice the volume of the pellet. This solution was then dialyzed at 4° C. against 10 mM Tris-HCl, 60 mM NaCl, pH 7.0. This sample was loaded on an anion-exchange chromatography, Diethylaminoethyl (DEAE)-Sephadex A-25 column (Pharmacia Biotech) (2.5×10 cm) previously equilibrated with 50 mM Tris-HCl, 60 mM NaCl, pH 8.0.
Protease inhibitors were purchased from Sigma Chemical (St. Louis, Mo.), including phenylmethylsulfonyl fluoride (PMSF), 4-(2-aminoethyl)-benzenesulfonyl fluoride (AEBSF), 3,4-dichloroisocoumarin (3,4-DCI), N-α-tosyl-L-lysine chloromethyl ketone (TLCK), N-tosyl-L-phenylalanine chloromethyl ketone (TPCK), ethylenediaminetetraacetic acid (EDTA), ethyleneglycol bis (2-aminoethyl ether) tetraacetic acid (EGTA), 1,10-phenanthroline, and phosphoramidon. These inhibitors can be divided into the following classes: (i) serine protease inhibitors (4 mM PMSF, 0.5 mM AEBSF, and 0.1 mM 3,4-DCI); (ii) serine and cysteine protease inhibitors (0.1 mM TLCK and TPCK); (iii) chelating agents (2 mM EDTA, EGTA, and 1,10-phenanthroline); (iv) a metallo-endoprotease inhibitor (0.5 mM phosphoramidon); and (v) divalent heavy metal ions (2 mM CaCl2, MgCl2, MnCl2, ZnCl2, CoCl2, CuCl2, and FeCl2). […] The percent activity remaining (% control) was expressed relative to the control.
The percent activity remaining (% control) was calculated as above.

THP-1 cells [1] = test: Effect of inhibitors co-incubated with PMA on TRRE production; assay type: cell-based, human
Description: Several inhibitors including cycloheximide (Chx) (an inhibitor of protein synthesis), actinomycin D (ActD) (an inhibitor of RNA synthesis), N-ethylmaleimide (NEM) (an inhibitor of membrane internalization and movement), cytochalasin B (CytB) (an inhibitor of microfilament formation), and colchicine (Col) (an inhibitor of microtubule formation) were purchased from Sigma Chemical (St. Louis, Mo.). THP-1 cells at a density of 1×10^6 cells/ml in RPMI-1640/1% FCS with 10^−6 M PMA was co-stimulated along with 10 μg/ml Chx, 1 μg/ml ActD, 1 mM NEM, 0.1 mM CytB, or 0.1 mM Col for 30 min at 37° C. in 5% CO2. Following centrifugation at 400×g for 5 min, the supernatant was discarded and the cells were washed once with serum-free medium. The cells were incubated for an additional 2 hours at the same density (1×10^6 cells/ml) in PMA-free RPMI-1640 with corresponding inhibitors.

THP-1 cells [2] = test: Induction of TRRE by cytokines and hormones; assay type: cell-based, human; conditions: 2 hours stimulation, insulin 10^−7 M, IL-1β 10 ng/ml, IL-6 100 ng/ml; for induction of TRRE activity: IL-10 100 ng/ml, epinephrine 10^−6 M
[3] = test system: Lipopolysaccharide-induced shock; conditions: Yamamoto et al. (1997); cited from earlier work
[4] = biological target: human soluble p75 TNF-R (human) (UniProt P20333); test: soluble p75 TNF-R-Affigel 10 affinity chromatography of TRRE after reaction with C75R cells; TRRE activity assay of fractions
Chain of human soluble p75 TNF-R (human) (P20333 23-257): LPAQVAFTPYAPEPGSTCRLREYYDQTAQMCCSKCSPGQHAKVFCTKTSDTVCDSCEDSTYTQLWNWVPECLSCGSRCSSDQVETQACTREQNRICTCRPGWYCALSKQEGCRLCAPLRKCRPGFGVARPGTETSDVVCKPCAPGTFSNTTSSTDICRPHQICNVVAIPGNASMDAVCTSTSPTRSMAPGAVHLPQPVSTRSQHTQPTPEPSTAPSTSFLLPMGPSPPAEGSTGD

[5] = biological target: TNF-R on L929 cells (murine); test: cell-based or functional assay
[6] = biological target: human p55 TNF-R (on THP-1 cells) (human) (UniProt P19438); test: cell-based or functional assay
Chain of human p55 TNF-R (on THP-1 cells) (human) (P19438 30-455): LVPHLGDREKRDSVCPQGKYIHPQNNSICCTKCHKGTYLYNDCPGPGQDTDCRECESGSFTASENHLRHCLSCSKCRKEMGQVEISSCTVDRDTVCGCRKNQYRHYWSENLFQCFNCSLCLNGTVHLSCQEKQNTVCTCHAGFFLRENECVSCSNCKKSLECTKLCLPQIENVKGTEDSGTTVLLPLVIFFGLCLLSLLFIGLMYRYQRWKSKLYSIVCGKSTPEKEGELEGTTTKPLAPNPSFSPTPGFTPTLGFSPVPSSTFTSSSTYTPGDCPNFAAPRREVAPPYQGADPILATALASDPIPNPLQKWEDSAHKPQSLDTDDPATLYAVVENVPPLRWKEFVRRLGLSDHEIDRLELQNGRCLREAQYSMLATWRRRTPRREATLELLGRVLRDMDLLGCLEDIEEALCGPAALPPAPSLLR

[7] = biological target: human p75 TNF-R (membrane-bound, on C75R transfected COS-1 cells or on THP-1 cells) (human) (UniProt P20333); test: cell-based or functional assay
Chain of human p75 TNF-R (membrane-bound, on C75R transfected COS-1 cells or on THP-1 cells) (human) (P20333 23-461 C75R limits assumed): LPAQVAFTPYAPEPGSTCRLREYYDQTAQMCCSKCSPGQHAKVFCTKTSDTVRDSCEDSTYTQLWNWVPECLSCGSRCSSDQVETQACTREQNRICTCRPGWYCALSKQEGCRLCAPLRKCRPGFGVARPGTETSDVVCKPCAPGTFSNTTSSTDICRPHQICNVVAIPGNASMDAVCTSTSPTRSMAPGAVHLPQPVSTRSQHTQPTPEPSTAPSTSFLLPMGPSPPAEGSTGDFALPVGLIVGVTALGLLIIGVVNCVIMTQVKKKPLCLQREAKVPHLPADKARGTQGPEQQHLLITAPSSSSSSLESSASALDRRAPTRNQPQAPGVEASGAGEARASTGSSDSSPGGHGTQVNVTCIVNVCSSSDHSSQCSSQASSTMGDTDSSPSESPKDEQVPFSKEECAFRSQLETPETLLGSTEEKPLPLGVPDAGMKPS

sTNF-R = conditions: Seitz et al. (1997); cited from earlier work
THP-1 cells [8] = test: Effect of inhibitors co-incubated with PMA on TRRE production; assay type: cell-based, human; conditions: inhibitor 0.01 mM with 10^−6 M PMA
[9] = 2 mM, preincubated 37° C. 30 min (Table 5)
[10] = 0.1 mM, preincubated 37° C. 30 min (Table 5)
[11] = inhibitor 1 mM with 10^−6 M PMA
[12] = 0.5 mM, preincubated 37° C. 30 min (Table 5)
[13] = inhibitor 0.1 mM with 10^−6 M PMA

[Ca+2].[Cl-].[Cl-] [Ca^2+, CaCl2]
% Control of TRRE activity (TRRE; [9]): 151% and 151 ± 23%
% Control of TRRE activity (TRRE; 4 mM (Table 6)): 189±4%

Cc1c2oc3c(C)ccc(C(=O)N[C@@H]4C(=O)N[C@H](C(C)C)C(=O)N5CCC[C@H]5C(=O)N(C)CC(=O)N(C)[C@@H](C(C)C)C(=O)O[C@@H]4C)c3nc-2c(C(=O)N[C@@H]2C(=O)N[C@H](C(C)C)C(=O)N3CCC[C@H]3C(=O)N(C)CC(=O)N(C)[C@@H](C(C)C)C(=O)O[C@@H]2C)c(N)c1=O [Actinomycin D, actinomycin D] (I: T[dV]P[Sar][NMeV] / II: T[dV]P[Sar][NMeV]; ester I:1-I:C, II:1-II:C; linker I:N-II:N via Actinocin(9to1))
% of TRRE production (THP-1 cells [1]; inhibitor 1 μg/ml with 10^−6 M PMA): 104%
% of TRRE production (THP-1 cells [1]; inhibitor 1 μg/ml with 10^−6 M PMA, listed as ActD): 97%

[Cl-].[Cl-].[Mg+2] [Mg^2+, MgCl2]
% Control of TRRE activity (TRRE; [9]): 127% and 127 ± 9%

[Cl-].[Cl-].[Co+2] [Co^2+, CoCl2]
% Control of TRRE activity (TRRE; [9]): 123% and 123 ± 15%

CNC[C@H](O)c1ccc(O)c(O)c1 [epinephrine]
induction of TRRE activity (THP-1 cells [2]): induced TRRE activity

[Cl][Fe][Cl] [Fe^2+, FeCl2]
% Control of TRRE activity (TRRE; [9]): 98 ± 8%

O=C(C(=O)N1CCn2nc(-c3ccc(F)cc3)c(-c3ccncc3)c2N1)c1ccccc1.O=S(=O)(O)O [FR167653]
Lipopolysaccharide-induced shock [3]: ameliorated

N-tosyl-L-phenylalanine chloromethyl ketone [TPCK]
% Control of TRRE activity (TRRE; [10]): 107 ± 7%
effect on TRRE activity (TRRE): no effect

CCN1C(=O)C=CC1=O [N-ethyl-maleimide, N-ethylmaleimide]
% of TRRE production (THP-1 cells [1]; [11]): 17%

[Cl-].[Cl-].[Zn+2] [Zn^2+, ZnCl2]
% Control of TRRE activity (TRRE; 0.1 mM (Table 6)): 122±6%
% Control of TRRE activity (TRRE; [9]): 23% and 23 ± 15%

IL-1β: cytokine
induction of TRRE activity (THP-1 cells [2]): no apparent TRRE activity
induction of sTNF-R (THP-1 cells [2]): induced sTNF-R

TNF receptor releasing enzyme (TRRE), from PMA-stimulated THP-1 cells
percent of recovered TRRE activity in the elution of the soluble p75 TNF-R affinity column [4]: 25%
percent of recovered TRRE activity in the flow through of the soluble p75 TNF-R affinity column (not retained) [4]: 53%
percent of recovered TRRE activity in the wash of the soluble p75 TNF-R affinity column (not retained) [4]: 22%
ratio of surviving L929 cells with 4 ng/ml TNF to cells without TNF, pretreated with 100 U/ml TRRE (control without TRRE: 24%) [5]: 30%
ratio of surviving L929 cells with 4 ng/ml TNF to cells without TNF, pretreated with 500 U/ml TRRE (control without TRRE: 24%) [5]: 38%
ratio of surviving L929 cells with 4 ng/ml TNF to cells without TNF, pretreated with 2,500 U/ml TRRE (control without TRRE: 24%) [5]: 74%
cell surface expression on THP-1 cells after 5,000 U/ml TRRE (flow cytometry, percent control of MFI) [6]: 8 % control
soluble p55 TNF-R released from THP-1 cells (ELISA) after 1,000 U/ml TRRE for 30 min [6]: 2380 pg/mL
cell surface expression on THP-1 cells after 5,000 U/ml TRRE (flow cytometry, percent control of MFI) [7]: 49 % control
soluble p75 TNF-R released from THP-1 cells (ELISA) after 1,000 U/ml TRRE for 30 min [7]: 1660 pg/mL

[Cl][Mn][Cl] [Mn^2+, MnCl2]
% Control of TRRE activity (TRRE; [9]): 157% and 157 ± 33%

CC(C)C[C@H](NP(=O)(O)O[C@@H]1O[C@@H](C)[C@H](O)[C@@H](O)[C@H]1O)C(=O)N[C@@H](Cc1c[nH]c2ccccc12)C(=O)O [Phosphoramidon, phosphoramidon]
% Control of TRRE activity (TRRE; [12]): 84 ± 13%

insulin: hormone
induction of TRRE activity (THP-1 cells [2]): no apparent TRRE activity
induction of sTNF-R (THP-1 cells [2]): induced sTNF-R

[Cl][Cu][Cl] [Cu^2+, CuCl2]
% Control of TRRE activity (TRRE; [9]): 47% and 47 ± 21%

CCCCC[C@H](O)/C=C/[C@H]1[C@H](O)CC(=O)[C@@H]1C/C=C\CCCC(=O)O [prostaglandin E2]
sTNF-R shedding (sTNF-R): not affected

COc1cc2c(c(OC)c1OC)-c1ccc(OC)c(=O)cc1[C@@H](NC(C)=O)CC2 [Colchicine, colchicine]
% of TRRE production (THP-1 cells [8]): 95%
% of TRRE production (THP-1 cells [1]; [13]): 111%
% of TRRE production (THP-1 cells [1]; [11]): 125%

C[C@@H]1C[C@@H]([C@H](O)CC2CC(=O)NC(=O)C2)C(=O)[C@@H](C)C1 [Cycloheximide, cycloheximide]
% of TRRE production (THP-1 cells [1]; inhibitor 10 μg/ml with 10^−6 M PMA): 97%
% of TRRE production (THP-1 cells [1]; inhibitor 10 μg/ml with 10^−6 M PMA, listed as Chx): 104%

O=c1oc(Cl)c(Cl)c2ccccc12 [3,4-DCI, 3,4-dichloroisocoumarin]
% Control of TRRE activity (TRRE; [10]): 108 ± 4%
effect on TRRE activity (TRRE): no effect

IL-6: cytokine
induction of TRRE activity (THP-1 cells [2]): no apparent TRRE activity
induction of sTNF-R (THP-1 cells [2]): induced sTNF-R

NCCc1ccc(S(=O)(=O)F)cc1 [AEBSF, 4-(2-aminoethyl)-benzenesulfonyl fluoride]
% Control of TRRE activity (TRRE; [12]): 92 ± 8%
effect on TRRE activity (TRRE): no effect

gold sodium thiomalate
sTNF-R shedding (sTNF-R): not affected

c1cnc2c(c1)ccc1cccnc12 [1,10-Phenanthroline, 1,10-phenanthroline]
% Control of TRRE activity (TRRE; 2 mM (Table 6)): 47 ± 9%
% Control of TRRE activity (TRRE; [9]): 41 ± 6%
% Control of TRRE activity (TRRE; 2 mM, preincubated 37° C. 30 min (Table 5), listed as 1,10-phenanthroline): 41%

O=C(O)CN(CCOCCOCCN(CC(=O)O)CC(=O)O)CC(=O)O [EGTA, ethyleneglycol bis (2-aminoethyl ether) tetraacetic acid]
% Control of TRRE activity (TRRE; [9]): 73% and 73 ± 4%

O=S(=O)(F)Cc1ccccc1 [PMSF, phenylmethylsulfonyl fluoride]
% Control of TRRE activity (TRRE; 4 mM, preincubated 37° C. 30 min (Table 5)): 116 ± 4%
effect on TRRE activity (TRRE): no effect

C=C1[C@@H](C)[C@H]2[C@H](Cc3ccccc3)NC(=O)[C@]23OC(=O)/C=C/[C@H](O)CCC[C@@H](C)C/C=C/[C@H]3[C@@H]1O [Cytochalasin B, cytochalasin B]
% of TRRE production (THP-1 cells [8]): 103%
% of TRRE production (THP-1 cells [1]; [13]): 91%

Cc1ccc(S(=O)(=O)N[C@@H](CCCCN)C(=O)CCl)cc1 [TLCK, N-α-tosyl-L-lysine chloromethyl ketone]
% Control of TRRE activity (TRRE; [10]): 108 ± 5%
effect on TRRE activity (TRRE): no effect

O=C(O)CN(CCN(CC(=O)O)CC(=O)O)CC(=O)O [EDTA, ethylenediaminetetraacetic acid]
% Control of TRRE activity (TRRE; [9]): 67% and 67 ± 7%

B1: IL-10: cytokine (protein, UniProt P22301 19-178, looked up)
Interleukin-10: SPGQGTQSENSCTHFPGNLPNMLRDLRDAFSRVKTFFQMKDQLDNLLLKESLLEDFKGYLGCQALSEMIQFYLEEVMPQAENQDPDIKAHVNSLGENLKTLRLRLRRCHRFLPCENKSKAVEQVKNAFNKLQEKGIYKAMSEFDIFINYIEAYMTMKIRN
induction of TRRE activity (THP-1 cells [2]): induced TRRE activity

Reference: patent US6858402B2 (The Regents of the University of California, priority 1996, dated 2005)
